From patent US8426437B2, “Pyrroloquinoline derivatives and their use as protein kinases inhibitors” (Pierre Fabre Medicament, priority 2005, dated 2013)
Structures can show the parent of a compound that is named as a salt.

What was measured:
PIM-1 = target: T1, PIM-1 (Homo sapiens, UniProt P11309); assay: Inhibition of kinase PIM-1 (Kinase-Glo); assay type: biochemical; settings: PIM-1 0.625 μg/ml, 10 μM ATP, forty minutes at 30° C.
T1 construct: purchased Upstate 14-573
Description: Protein PIM-1 (Upstate #14-573 batch 25864U) is incubated at a concentration of 0.625 μg/ml in a buffer containing 8 mM of MOPS/NaOH pH7, 0.2 mM EDTA, 5 mM MgAc (Sigma #229768), 0.01% Triton Tx100, in the presence of 70 μM of peptide substrate S6 Kinase/Rsk2 (Upstate #12-243), and 10 μM of ATP.
The dilution buffer for PIM-1 is as follows: 20 mM MOPS/NaOH pH7, 1 mM EDTA, 5% glycerol, 0.01% Brij35, 0.1% 2-mercapto, 1 mg/ml BSA
The compound to be tested is first added to the enzyme to give a reaction volume of 50 μl. The dilution of the compounds of the invention is distributed so as to obtain a scale of final concentrations between 10 nM and 30 μM.
After incubation of the reaction mixture for forty minutes at 30° C., the level of ATP that remains is assayed using the Kinase-Glo Luminescent Kinase Assay (Promega #V6712) according to the conditions recommended by the supplier. The luminescence induced is read in a plate reader (Envision-Perkin Elmer).

RET = target: T2, RET (Homo sapiens, UniProt P07949); assay: Inhibition of RET kinase activity, recombinant RET method (Kinase-Glo); assay type: biochemical; settings: RET 2 μg/ml, poly-EY4 substrate, 20 μM ATP, two hours at 30° C.
T2 construct: purchased Upstate 14-570MG
T2 sequence (P07949 29-1114): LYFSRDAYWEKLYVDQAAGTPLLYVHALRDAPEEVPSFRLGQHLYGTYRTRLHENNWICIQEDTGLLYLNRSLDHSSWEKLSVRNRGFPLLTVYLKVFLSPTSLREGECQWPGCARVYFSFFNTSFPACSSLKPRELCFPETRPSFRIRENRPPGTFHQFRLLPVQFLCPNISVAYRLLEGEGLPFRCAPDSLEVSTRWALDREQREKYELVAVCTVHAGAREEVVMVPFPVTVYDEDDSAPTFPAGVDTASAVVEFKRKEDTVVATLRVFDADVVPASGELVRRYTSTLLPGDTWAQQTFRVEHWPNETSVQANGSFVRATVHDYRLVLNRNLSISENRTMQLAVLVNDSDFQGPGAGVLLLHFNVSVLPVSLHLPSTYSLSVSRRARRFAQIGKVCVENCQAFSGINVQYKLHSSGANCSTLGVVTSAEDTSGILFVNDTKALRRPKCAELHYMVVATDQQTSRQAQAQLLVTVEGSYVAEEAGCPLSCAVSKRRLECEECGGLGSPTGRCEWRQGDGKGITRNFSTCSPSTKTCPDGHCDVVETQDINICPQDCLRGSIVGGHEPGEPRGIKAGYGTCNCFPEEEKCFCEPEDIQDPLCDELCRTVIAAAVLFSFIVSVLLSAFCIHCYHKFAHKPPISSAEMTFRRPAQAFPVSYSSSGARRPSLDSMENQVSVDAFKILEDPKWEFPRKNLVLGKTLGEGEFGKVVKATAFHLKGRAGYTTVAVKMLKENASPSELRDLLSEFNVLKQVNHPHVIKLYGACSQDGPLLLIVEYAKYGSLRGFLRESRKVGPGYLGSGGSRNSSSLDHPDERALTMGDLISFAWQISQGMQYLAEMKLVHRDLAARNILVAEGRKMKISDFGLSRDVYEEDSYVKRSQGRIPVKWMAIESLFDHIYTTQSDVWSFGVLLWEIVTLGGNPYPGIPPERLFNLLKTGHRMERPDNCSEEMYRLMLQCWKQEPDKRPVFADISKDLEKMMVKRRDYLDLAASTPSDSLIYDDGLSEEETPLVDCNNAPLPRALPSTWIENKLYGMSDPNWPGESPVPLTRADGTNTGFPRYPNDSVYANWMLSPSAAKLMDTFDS
Procedure, shortened: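 Recombinant RET at 2 μg/ml in 20 mM MOPS/NaOH pH 7.0, 1 mM EDTA, 5% glycerol, 0.01% Brij35, 0.1% 2-mercaptoethanol, 1 mg/ml BSA; compounds 10 nM–30 μM final.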

T1 sequence (P11309 whole entry): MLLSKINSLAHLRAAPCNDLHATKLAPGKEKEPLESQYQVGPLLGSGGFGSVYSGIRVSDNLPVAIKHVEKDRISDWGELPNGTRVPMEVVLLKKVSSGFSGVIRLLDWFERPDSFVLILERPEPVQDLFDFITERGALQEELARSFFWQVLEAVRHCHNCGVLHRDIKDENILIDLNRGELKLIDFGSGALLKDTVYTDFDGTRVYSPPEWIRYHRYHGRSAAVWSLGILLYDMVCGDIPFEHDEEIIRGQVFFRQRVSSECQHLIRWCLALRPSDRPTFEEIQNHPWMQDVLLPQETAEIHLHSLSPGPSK

IC50 (PIM-1) | IC50 (RET) | Compound
10000 to 100000 nM | 10000 to 100000 nM | CN(C)CCNC(=O)c1c[nH]c2c(=O)[nH]c3ccccc3c12 [Compound 79, N-(2-Dimethylamino-ethyl)-4-oxo-4,5-dihydro-3H-pyrrolo[2,3-c]quinoline-1-carboxamide]
1000 to 10000 nM | 1000 to 10000 nM | CCOC(=O)c1c[nH]c2c(=O)[nH]c3ccc(-c4ccnc(N(C)C)n4)cc3c12 [Compound 262, 8-(2-Dimethylamino-pyrimidin-4-yl)-4-oxo-4,5-dihydro-3H-pyrrolo[2,3-c]quinoline-1-ethyl carboxylate]
1000 to 10000 nM | 1000 to 10000 nM | CCOC(=O)c1c[nH]c2c(=O)[nH]c3ccc(-c4ccnc(N(C)CCN(C)C)n4)cc3c12 [Compound 269, 8-{2-[(2-Dimethylamino-ethyl)-methyl-amino]-pyrimidin-4-yl}-4-oxo-4,5-dihydro-3H-pyrrolo[2,3-c]quinoline-1-ethyl carboxylate formate]
1000 to 10000 nM | 1000 to 10000 nM | CCOC(=O)c1c[nH]c2c(=O)[nH]c3ccc([N+](=O)[O-])cc3c12 [Compound 66, 8-Nitro-4-oxo-4,5-dihydro-3H-pyrrolo[2,3-c]quinoline-1-ethyl carboxy late]
1000 to 10000 nM | 1000 to 10000 nM | CCOC(=O)c1c[nH]c2c(=O)[nH]c3ccc(S(=O)(=O)NCC4CCNCC4)cc3c12 [Compound 121, 4-Oxo-8-[(piperidin-4-ylmethyl)-sulfamoyl]-4,5-dihydro-3H-pyrrolo[2,3-c]quinoline-1-ethyl carboxylate]
1000 to 10000 nM | 100 to 1000 nM | CCOC(=O)c1c[nH]c2c(=O)[nH]c3ccc(SCc4ccccc4)cc3c12 [Compound 222, 8-Benzylsulfanyl-4-oxo-4,5-dihydro-3H-pyrrolo[2,3-c]quinoline-1-ethyl carboxylate]
10000 to 100000 nM | 100 to 1000 nM | CCOC(=O)c1c[nH]c2c(=O)[nH]c3ccc(-c4ccnc(N)n4)cc3c12 [Compound 261, 8-(2-Amino-pyrimidin-4-yl)-4-oxo-4,5-dihydro-3H-pyrrolo[2,3-c]quinoline-1-ethyl carboxylate]
10000 to 100000 nM | 1000 to 10000 nM | CCOC(=O)c1c[nH]c2c(=O)[nH]c3ccc(NC)cc3c12 [Compound 63, 8-Methylamino-4-oxo-4,5-dihydro-3H-pyrrolo[2,3-c]quinoline-1-ethyl carboxylate hydrochloride]
1000 to 10000 nM | 100 to 1000 nM | CCOC(=O)c1c[nH]c2c(=O)[nH]c3ccc(-c4csc(C5CCNCC5)n4)cc3c12 [Compound 277, 4-Oxo-8-(2-piperidin-4-yl-thiazol-4-yl)-4,5-dihydro-3H-pyrrolo[2,3-c]quinoline-1-ethyl carboxylate]
1000 to 10000 nM | 1000 to 10000 nM | CCOC(=O)c1c[nH]c2c(=O)[nH]c3ccc(-c4ccc(Cl)nc4)cc3c12 [Compound 259, 8-(6-Chloro-pyridin-3-yl)-4-oxo-4,5-dihydro-3H-pyrrolo[2,3-c]quinoline-1-ethyl carboxylate]
1000 to 10000 nM | 100 to 1000 nM | CCOC(=O)c1c[nH]c2c(=O)[nH]c3ccc(SC4CCCCC4)cc3c12 [Compound 221, 8-Cyclohexylsulfanyl-4-oxo-4,5-dihydro-3H-pyrrolo[2,3-c]quinoline-1-ethyl carboxylate]
10000 to 100000 nM | 100 to 1000 nM | CCOC(=O)c1c[nH]c2c(=O)[nH]c3ccc(-c4csc(N)n4)cc3c12 [Compound 270, 8-(2-Amino-thiazol-4-yl)-4-oxo-4,5-dihydro-3H-pyrrolo[2,3-c]quinoline-1-ethyl carboxylate]
1000 to 10000 nM | 100 to 1000 nM | CCOC(=O)c1c[nH]c2c(=O)[nH]c3ccc(Br)cc3c12 [Compound 71, 8-Bromo-4-oxo-4,5-dihydro-3H-pyrrolo[2,3-c]quinoline-1-ethyl carboxylate]
1000 to 10000 nM | 100 to 1000 nM | CCOC(=O)c1c[nH]c2c(=O)[nH]c3ccc(S(=O)(=O)N(C)c4cccc(Cl)c4)cc3c12 [Compound 34, 8-[(3-Chlorophenyl)-methyl-sulfamoyl)-4-oxo-4,5-dihydro-3H-pyrrolo[2,3-c]quinoline-1-ethyl carboxylate]
100 to 1000 nM | 100 to 1000 nM | CCOC(=O)c1c[nH]c2c(=O)[nH]c3ccc(-c4ccc(N)cc4)cc3c12 [Compound 244, 8-(4-Aminophenyl)-4-oxo-4,5-dihydro-3H-pyrrolo[2,3-c]quinoline-1-ethyl carboxylate]
1000 to 10000 nM | < 100 nM | O=C(OC1CCCC1)c1c[nH]c2c(=O)[nH]c3ccc(S(=O)(=O)NC4CCNCC4)cc3c12 [Compound 116, 4-Oxo-8-(piperidin-4-ylsulfamoyl)-4,5-dihydro-3H-pyrrolo[2,3-c]quinoline-1-cyclopentyl carboxylate]

IC50 (PIM-1) | IC50 (RET) | Compound
100 to 1000 nM | 100 to 1000 nM | CCOC(=O)c1c[nH]c2c(=O)[nH]c3ccc(I)cc3c12 [Compound 209, 8-Iodo-4-oxo-4,5-dihydro-3H-pyrrolo[2,3-c]quinoline-1-ethyl carboxylate]
1000 to 10000 nM | 1000 to 10000 nM | CCOC(=O)c1c[nH]c2c(=O)[nH]c3ccc(/C=C/c4ccccc4)cc3c12 [Compound 70, 4-Oxo-8-styryl-4,5-dihydro-3H-pyrrolo[2,3-c]quinoline-1-ethyl carboxylate]
1000 to 10000 nM | 100 to 1000 nM | CCOC(=O)c1c[nH]c2c(=O)[nH]c3ccc(-c4cccc(CNC)c4)cc3c12 [Compound 241, 8-(3-Methylaminomethyl-phenyl)-4-oxo-4,5-dihydro-3H-pyrrolo[2,3-c]quinoline-1-ethyl carboxylate]
10000 to 100000 nM | 1000 to 10000 nM | CCOC(=O)c1c[nH]c2c(=O)[nH]c3ccc(N)cc3c12 [Compound 64, 8-Amino-4-oxo-4,5-dihydro-3H-pyrrolo[2,3-c]quinoline-1-ethyl carboxylate]
10000 to 100000 nM | 100 to 1000 nM | O=C(OCC1CCOC1)c1c[nH]c2c(=O)[nH]c3ccc(S(=O)(=O)NC4CCNCC4)cc3c12 (centres unmarked) [Compound 118, 4-Oxo-8-(piperidin-4-ylsulfamoyl)-4,5-dihydro-3H-pyrrolo[2,3-c]quinoline-1-methyltetrahydrofuran-3-yl carboxylate]
10000 to 100000 nM | 1000 to 10000 nM | COC(=O)c1c[nH]c2c(=O)[nH]c3ccc(S(=O)(=O)N4CCN(C)CC4)cc3c12 [Compound 95, 8-(4-Methyl-piperazine-1-sulfonyl)-4-oxo-4,5-dihydro-3H-pyrrolo[2,3-c]quinoline-1-methyl carboxylate]
– | 10000 to 100000 nM | CN(c1ccc(F)cc1)S(=O)(=O)c1ccc2[nH]c(=O)c3[nH]cc(C(=O)O)c3c2c1 [Compound 103, 8-[(4-Fluorophenyl)-methyl-sulfamoyl]-4-oxo-4,5-dihydro-3H-pyrrolo[2,3-c]quinoline-1-carboxylic acid]
– | 1000 to 10000 nM | CCOC(=O)c1c[nH]c2c(=O)[nH]c3ccc(-c4cccc5cccnc45)cc3c12 [Compound 250, 4-Oxo-8-quinolin-8-yl-4,5-dihydro-3H-pyrrolo[2,3-c]quinoline-1-ethyl carboxylate]
– | 10000 to 100000 nM | CCCN(C)C(=O)c1c[nH]c2c(=O)[nH]c3ccc(S(=O)(=O)N(C)C)cc3c12 [Compound 110, N-Methyl-N-propyl-8-dimethylsulfamoyl-4-oxo-4,5-dihydro-3H-pyrrolo[2,3-c]quinoline-1-carboxamide]
– | 10000 to 100000 nM | CCOC(=O)c1c[nH]c2c(=O)[nH]c3ccc(NS(=O)(=O)c4cccc(C)c4)cc3c12 [Compound 48, 4-Oxo-8-(3-toluenesulfonylamino)-4,5-dihydro-3H-pyrrolo[2,3-c]quinoline-1-ethyl carboxylate]
– | 1000 to 10000 nM | CCOC(=O)c1c[nH]c2c(=O)[nH]c3ccc(-c4csc(Nc5ccccc5Cl)n4)cc3c12 [Compound 272, 8-[2-(2-Chlorophenylamino)-thiazol-4-yl]-4-oxo-4,5-dihydro-3H-pyrrolo[2,3-c]quinoline-1-ethyl carboxylate]
– | 1000 to 10000 nM | CCOC(=O)c1c[nH]c2c(=O)[nH]c3ccc(NC(=O)c4ccccc4)cc3c12 [Compound 60, 8-Benzoylamino-4-oxo-4,5-dihydro-3H-pyrrolo[2,3-c]quinoline-1-ethyl carboxylate]
– | 1000 to 10000 nM | COC(=O)c1c[nH]c2c(=O)[nH]c3ccc(S(=O)(=O)NN4CC5CCCC5C4)cc3c12 (centres unmarked) [Compound 192, 8-(Hexahydro-cyclopenta[c]pyrrol-2-ylsulfamoyl)-4-oxo-4,5-dihydro-3H-pyrrolo[2,3-c]quinoline-1-methyl carboxylate]
– | 1000 to 10000 nM | CCOC(=O)c1c[nH]c2c(=O)[nH]c3ccc(-c4csc(NNc5ccccc5)n4)cc3c12 [Compound 280, 4-Oxo-8-[2-(N′-phenyl-hydrazino)-thiazol-4-yl]-4,5-dihydro-3H-pyrrolo[2,3-c]quinoline-1-ethyl carboxylate]
– | < 100 nM | CCCOC(=O)c1c[nH]c2c(=O)[nH]c3ccc(S(=O)(=O)N(CC)[C@H]4CCN(C)C4)cc3c12 [Compound 161, (S)-8-[Ethyl-(1-methyl-pyrrolidin-3-yl)-sulfamoyl]-4-oxo-4,5-dihydro-3H-pyrrolo[2,3-c]quinoline-1-propyl carboxylate]
